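GI50 = concentration required for 50% inhibition of growth. Definition used: TGI = concentration required for complete inhibition of growth.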
Legend:
Assay in all cases: growth of human tumour cells (NCI), 384-well format
[1] = test system: RXF 393 renal
[2] = test system: LOX IMVI melanoma
[3] = test system: UACC-62 melanoma
[4] = test system: OVCAR-8 ovarian
[5] = test system: SF-539 CNS
[6] = test system: CAKI-1 renal
[7] = test system: PC-3 prostate
[8] = test system: T-47D breast
[9] = test system: HT29 colon
[10] = test system: BT-549 breast
[11] = test system: HOP-62 NSCLC
[12] = test system: SF-268 CNS
[13] = test system: UACC-257 melanoma
[14] = test system: NCI-H226 lung
[15] = test system: RPMI-8226 leukemia
[16] = test system: SK-MEL-28 melanoma
[17] = test system: SK-MEL-2 melanoma
[18] = test system: HCT-116 colon
[19] = test system: CCRF-CEM leukemia
[20] = test system: NCI-H23 lung
[21] = test system: MDA-MB-435 melanoma
[22] = test system: SW-620 colon
[23] = test system: MDA-MB-468 breast
[24] = test system: SN12C renal
[25] = test system: U251 glioblastoma
[26] = test system: OVCAR-5 ovarian
[27] = test system: EKVX NSCLC
[28] = test system: A498 renal
[29] = test system: UO-31 renal
[30] = test system: TK-10 renal
[31] = test system: HL-60(TB) leukemia
[32] = test system: OVCAR-4 ovarian
[33] = test system: 786-0 renal
[34] = test system: SF-295 CNS
[35] = test system: MDA-MB-231 breast
[36] = test system: NCI-H522 lung
[37] = test system: SNB-75 CNS
[38] = test system: A549 NSCLC
[39] = test system: DU-145 prostate
[40] = test system: NCI-H322M lung
[41] = test system: NCI/ADR-RES ovarian
[42] = test system: SNB-19 CNS
[43] = test system: HCT-15 colon
[44] = test system: KM12 colon
[45] = test system: M14 melanoma
[46] = test system: ACHN renal
[47] = test system: MOLT-4 leukemia
[48] = test system: IGROV1 ovarian
[49] = test system: K-562 leukemia
[50] = test system: SK-OV-3 ovarian
[51] = test system: MALME-3M melanoma
[52] = test system: MCF7 breast
[53] = test system: OVCAR-3 ovarian
[54] = test system: HS 578T breast
[55] = test system: HOP-92 NSCLC
[56] = test system: HCC-2998 colon
[57] = test system: COLO 205 colon
[58] = test system: NCI-H460 NSCLC
[59] = test system: SR leukemia
[60] = test system: SK-MEL-5 melanoma

O=C1c2c(O)ccc(O)c2C(=O)c2c(NCCNCCO)ccc(NCCNCCO)c21
GI50 [1]: 61 nM | TGI [1]: 210 nM | GI50 [2]: 13.8 nM | TGI [2]: 155 nM | GI50 [3]: < 10 nM | TGI [3]: 148 nM | GI50 [4]: < 10 nM | TGI [4]: 152 nM | GI50 [5]: < 10 nM | TGI [5]: 124 nM | GI50 [6]: 13.3 nM | TGI [6]: 0.642 µM | GI50 [7]: 135 nM | TGI [7]: 545 nM | GI50 [8]: 29.8 nM | TGI [8]: 1420 nM | GI50 [9]: 34.4 nM | TGI [9]: 187 nM | GI50 [10]: 15.5 nM | TGI [10]: 195 nM | GI50 [11]: < 10 nM | TGI [11]: 16 nM | GI50 [12]: < 10 nM | TGI [12]: 154 nM | GI50 [13]: 1100 nM | TGI [13]: 2370 nM | GI50 [14]: 13.4 nM | TGI [14]: 163 nM | GI50 [15]: < 10 nM | TGI [15]: 37.1 nM | GI50 [16]: 116 nM | TGI [16]: 1370 nM | GI50 [17]: 83.9 nM | TGI [17]: 189 nM | GI50 [18]: < 10 nM | TGI [18]: 242 nM | GI50 [19]: < 10 nM | TGI [19]: < 10 nM | GI50 [20]: 12.9 nM | TGI [20]: 102 nM | GI50 [21]: 125 nM | TGI [21]: 1100 nM | GI50 [22]: < 10 nM | TGI [22]: 507 nM | GI50 [23]: 16.8 nM | TGI [23]: 59.8 nM | GI50 [24]: < 10 nM | TGI [24]: 55.5 nM | GI50 [25]: < 10 nM | TGI [25]: 114 nM | GI50 [26]: 24.3 nM | TGI [26]: 0.284 µM | GI50 [27]: 589 nM | TGI [27]: 3.54 µM | GI50 [28]: 11.4 nM | TGI [28]: 217 nM | GI50 [29]: 195 nM | TGI [29]: 1.65 µM | GI50 [30]: 121 nM | TGI [30]: 0.358 µM | GI50 [31]: < 10 nM | TGI [31]: < 10 nM | GI50 [32]: 171 nM | TGI [32]: 660 nM | GI50 [33]: 10.3 nM | TGI [33]: 246 nM | GI50 [34]: 10.6 nM | TGI [34]: 44.7 nM | GI50 [35]: 18.7 nM | TGI [35]: 97.9 nM | GI50 [36]: 14.6 nM | TGI [36]: 58 nM | GI50 [37]: 22.9 nM | TGI [37]: 130 nM | GI50 [38]: < 0.01 µM | TGI [38]: 0.181 µM | GI50 [39]: 19.6 nM | TGI [39]: 650 nM | GI50 [40]: 313 nM | TGI [40]: 1760 nM | GI50 [41]: 4.58 µM | TGI [41]: > 100 µM | GI50 [42]: 10.5 nM | TGI [42]: 1120 nM | GI50 [43]: < 0.01 µM | TGI [43]: 0.173 µM | GI50 [44]: 44.7 nM | TGI [44]: 284 nM | GI50 [45]: 17.7 nM | TGI [45]: 334 nM | GI50 [46]: 33.3 nM | TGI [46]: 0.251 µM | GI50 [47]: < 10 nM | TGI [47]: < 10 nM | GI50 [48]: 185 nM | TGI [48]: 5.37 µM | GI50 [49]: 48.1 nM | TGI [49]: 240 nM | GI50 [50]: 17.7 nM | TGI [50]: 0.661 µM | GI50 [51]: 61.1 nM | TGI [51]: 388 nM | GI50 [52]: < 10 nM | TGI [52]: 1180 nM | GI50 [53]: 186 nM | TGI [53]: 1160 nM | GI50 [54]: < 10 nM | TGI [54]: 181 nM | GI50 [55]: 24.8 nM | TGI [55]: 1190 nM

COc1ccccc1-c1nccc(COc2ccccc2C[C@@H](Oc2ncnc3sc(-c4ccc(F)cc4)c(-c4ccc(OCCN5CCN(C)CC5)c(Cl)c4C)c23)C(=O)O)n1
GI50 [1]: 78.6 nM | TGI [1]: 1040 nM | GI50 [2]: 1980 nM | TGI [2]: 3420 nM | GI50 [3]: 20.6 nM | TGI [3]: 57 nM | GI50 [4]: 1770 nM | TGI [4]: 3240 nM | GI50 [5]: 1200 nM | TGI [5]: 2470 nM | GI50 [6]: 2750 nM | TGI [6]: 6.51 µM | GI50 [7]: 1820 nM | TGI [7]: 3240 nM | GI50 [8]: 1580 nM | TGI [8]: 3430 nM | GI50 [9]: 1830 nM | TGI [9]: 3330 nM | GI50 [10]: 1270 nM | TGI [10]: 2550 nM | GI50 [11]: 1710 nM | TGI [11]: 3270 nM | GI50 [12]: 1570 nM | TGI [12]: 2930 nM | GI50 [13]: 1700 nM | TGI [13]: 3400 nM | GI50 [14]: 2040 nM | TGI [14]: 3640 nM | GI50 [15]: < 10 nM | TGI [15]: < 10 nM | GI50 [16]: 1420 nM | TGI [16]: 2730 nM | GI50 [17]: < 10 nM | TGI [17]: < 10 nM | GI50 [18]: 1940 nM | TGI [18]: 3530 nM | GI50 [56]: 1190 nM | TGI [56]: 2520 nM | GI50 [19]: 29.6 nM | TGI [19]: 801 nM | GI50 [20]: 45.3 nM | TGI [20]: 380 nM | GI50 [21]: 391 nM | TGI [21]: 1600 nM | GI50 [22]: 1880 nM | TGI [22]: 3360 nM | GI50 [23]: 10.9 nM | TGI [23]: 54 nM | GI50 [57]: 1820 nM | TGI [57]: 3.54 µM | GI50 [24]: 1520 nM | TGI [24]: 2900 nM | GI50 [25]: 1810 nM | TGI [25]: 3370 nM | GI50 [26]: 2730 nM | TGI [26]: 6.27 µM | GI50 [28]: 2260 nM | TGI [28]: 5430 nM | GI50 [29]: 4230 nM | TGI [29]: 14.2 µM | GI50 [58]: 1330 nM | TGI [58]: 3.54 µM | GI50 [30]: 2380 nM | TGI [30]: 5.65 µM | GI50 [31]: < 10 nM | TGI [31]: < 10 nM | GI50 [59]: < 10 nM | TGI [59]: < 10 nM | GI50 [32]: 163 nM | TGI [32]: 3110 nM | GI50 [33]: 1780 nM | TGI [33]: 3210 nM | GI50 [34]: 1400 nM | TGI [34]: 2720 nM | GI50 [35]: 1570 nM | TGI [35]: 2960 nM | GI50 [36]: < 10 nM | TGI [36]: 95.9 nM | GI50 [38]: 10.6 µM | TGI [38]: 22.5 µM | GI50 [39]: 2130 nM | TGI [39]: 4580 nM | GI50 [40]: 1910 nM | TGI [40]: 3720 nM | GI50 [41]: 26.8 µM | TGI [41]: > 100 µM | GI50 [42]: 1870 nM | TGI [42]: 3360 nM | GI50 [43]: 5.29 µM | TGI [43]: 16.2 µM | GI50 [44]: 1730 nM | TGI [44]: 3140 nM | GI50 [45]: 1540 nM | TGI [45]: 2890 nM | GI50 [46]: 4570 nM | TGI [46]: 14.8 µM | GI50 [60]: 1470 nM | TGI [60]: 2800 nM | GI50 [47]: < 10 nM | TGI [47]: 17.7 nM | GI50 [48]: 1660 nM | TGI [48]: 3.09 µM | GI50 [49]: 1930 nM | TGI [49]: 3480 nM | GI50 [50]: 2950 nM | TGI [50]: 9.17 µM | GI50 [51]: 1080 nM | TGI [51]: 2290 nM | GI50 [52]: 46.2 nM | TGI [52]: 1040 nM | GI50 [53]: 1850 nM | TGI [53]: 3270 nM | GI50 [55]: 1720 nM | TGI [55]: 3100 nM

Source: PubChem BioAssay (NCI)
